Measurements: the supplement of paper PMC10790783
Counter-ions that a name gives are not always drawn.

Test system: MRC5-hT fibroblasts expressing HCMV UL38 (glucose-free medium)
Assay: rescue of cell number (AUC of dose-response) relative to untreated glucose-free control; higher = stronger protection from glucose-starvation-induced cell death
Conditions: glucose: 0 (glucose-free DMEM); 96 h; dose range 0.001-20, 10-point curve µM
Protocol: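 MRC5-hT fibroblasts stably expressing HCMV UL38 were seeded in 384-well plates, serum-starved for 24 h, switched to glucose-free DMEM, and pin-transferred with a metabolism-focused compound library as 10-point dose curves (1 nM to 20 µM; n=2). Nuclei were counted by Hoechst imaging 96 h after glucose withdrawal.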

In the case of `Cc1c2oc3c(C)ccc(C(=O)N[C@@H]4C(=O)N[C@H](C(C)C)C(=O)N5CCC[C@H]5C(=O)N(C)CC(=O)N(C)[C@@H](C(C)C)C(=O)O[C@@H]4C)c3nc-2c(C(=O)N[C@@H]2C(=O)N[C@H](C(C)C)C(=O)N3CCC[C@H]3C(=O)N(C)CC(=O)N(C)[C@@H](C(C)C)C(=O)O[C@@H]2C)c(N)c1=O` [Actinomycin_D], the “rescue of cell number” value is reported as 27.1%.
`O=c1oc2ccccc2c(O)c1Cc1c(O)c2ccccc2oc1=O` [Dicoumarol] was tested, and the “rescue of cell number” value was -17.7%.
For `CN(C/C=C/C#CC(C)(C)C)Cc1cccc2ccccc12` [Terbinafine_HCl], the “rescue of cell number” value was -15.4%.
`CC(=O)NC[C@H]1CN(c2ccc(N3CCOCC3)c(F)c2)C(=O)O1` [Linezolid] was tested, and the “rescue of cell number” value was -6.21%.
`O=C(O)c1cc(/N=N/c2ccc(S(=O)(=O)Nc3ccccn3)cc2)ccc1O` [Sulfasalazine] was tested, and the “rescue of cell number” value was 87.4%.
In the case of `O=C(O)c1nn(Cc2ccc(Cl)cc2Cl)c2ccccc12` [Lonidamine], the “rescue of cell number” value is reported as -29%.
`CCOC(=O)c1ccc(-c2ccc(OC(=O)N(C)Cc3cccc(-c4ccncc4)c3)cc2)cc1` [WWL_113] was tested, and the “rescue of cell number” value was -23.8%.
In the case of `OCCN1C[C@H](O)[C@@H](O)[C@H](O)[C@H]1CO` [Miglitol], the “rescue of cell number” value is reported as -37.1%.
With `O=C(Nc1cccc(C(F)(F)F)c1)Nc1cc(S(=O)(=O)NC2CC2)ccc1-c1ccsc1` [AGI_6780] the “rescue of cell number” value was -23.4%.
For `COc1cc2c(cc1O)CC[C@@H]1[C@@H]2CC[C@]2(C)[C@@H](O)CC[C@@H]12` [2_Methoxyestradiol], the “rescue of cell number” value was 22.8%.
In the case of `CCCCCCCC/C=C\CCCCCCCC(=O)NCCO` [Oleylethanolamide], the “rescue of cell number” value is reported as -13.2%.
`CC(=O)O[C@H]1C(=O)[C@@]2(C)[C@H]([C@H](OC(=O)c3ccccc3)[C@]3(O)C[C@H](OC(=O)[C@H](O)[C@@H](NC(=O)c4ccccc4)c4ccccc4)C(C)=C1C3(C)C)[C@]1(OC(C)=O)CO[C@@H]1C[C@@H]2O` [Taxol] was tested, and the “rescue of cell number” value was 21.5%.
In the case of `O=C(O)CN1C(=O)c2cccc3cccc(c23)C1=O` [Alrestatin], the “rescue of cell number” value is reported as 4.91%.
`Nc1ccn([C@H]2CC[C@@H](CO)O2)c(=O)n1` [Zalcitabine] was tested, and the “rescue of cell number” value was 9.86%.
`NC(=O)NO` [Hydroxyurea] was tested, and the “rescue of cell number” value was 61.6%.
For `CC(c1cc2ccccc2s1)N(O)C(N)=O` (stereo not drawn) [Zileuton], the “rescue of cell number” value was -16.9%.
With `CC(C)(C)NC(=O)[C@H]1CC[C@H]2[C@@H]3CC[C@H]4NC(=O)C=C[C@]4(C)[C@H]3CC[C@]12C` [Finasteride] the “rescue of cell number” value was -38.3%.
In the case of `O=C(/C=C/c1ccc(O)c(O)c1)O[C@@H]1C[C@](O)(C(=O)O)C[C@@H](O)[C@H]1O` [Chlorogenic_acid], the “rescue of cell number” value is reported as 95%.
`CCCCCCCCCCCCC/C=C/[C@@H](O)[C@H](CO)N(C)C` [N_N_Dimethylsphingosine] was tested, and the “rescue of cell number” value was 18.1%.
With `CN(Cc1cnc2nc(N)nc(N)c2n1)c1ccc(C(=O)N[C@@H](CCC(=O)O)C(=O)O)cc1` [Methotrexate] the “rescue of cell number” value was -33.3%.
`CC(C)=CCC1=C(O)C(=O)c2ccccc2C1=O` [Lapachol] was tested, and the “rescue of cell number” value was 57.7%.
With `CCCCCC[C@H]1C(=O)O[C@H](C)[C@H](NC(=O)c2cccc(NC=O)c2O)C(=O)O[C@@H](C)[C@@H]1OC(=O)CC(C)C` [Antimycin_A] the “rescue of cell number” value was -7.1%.
For `O=C(O)C[C@@]1(O)C[C@@H](CCCCCCc2ccc(Cl)cc2Cl)OC1=O`, the “rescue of cell number” value was 45.4%.
In the case of `N#CC(CCCN1CCN(/N=C/c2cccnc2)CC1)(c1ccccc1)c1ccccc1`, the “rescue of cell number” value is reported as 99.9%.
In the case of `OCCN(CCO)c1nc(N2CCCCC2)c2nc(N(CCO)CCO)nc(N3CCCCC3)c2n1` [Dipyridamole], the “rescue of cell number” value is reported as 141%.
In the case of `O=C(CCCCCCCn1cc(-c2cccnc2)nn1)Nc1ccccc1-c1ccccc1` [GPP_78], the “rescue of cell number” value is reported as 20.3%.
In the case of `Nc1cccc(S(=O)(=O)N2CCCN(S(=O)(=O)c3ccc4c(c3)OCCO4)CC2)c1` [DASA-58], the “rescue of cell number” value is reported as 68%.
For `CCOc1ccc(Cc2cc([C@@H]3O[C@H](CO)[C@@H](O)[C@H](O)[C@H]3O)ccc2Cl)cc1` [Dapagliflozin], the “rescue of cell number” value was -33.4%.
With `CN(C)C(=N)NC(=N)N` [Metformin] the “rescue of cell number” value was -36.3%.
For `O=C(N[C@H](CO)[C@H](O)c1ccc([N+](=O)[O-])cc1)C(Cl)Cl` [Chloramphenicol], the “rescue of cell number” value was -10.7%.
For `O=c1cnn([C@@H]2O[C@H](CO)[C@@H](O)[C@H]2O)c(=O)[nH]1` [6_Azauridine], the “rescue of cell number” value was -34.1%.
`CC1=C(/C=C/C(C)=C/C=C/C(C)=C\C(=O)O)C(C)(C)CCC1` [Isotretinoin] was tested, and the “rescue of cell number” value was 128%.
`N=C(N)NC(=N)NCCc1ccccc1` [Phenformin] was tested, and the “rescue of cell number” value was -11.3%.
With `Cc1ccc([C@@H]2O[C@H](CO)[C@@H](O)[C@H](O)[C@H]2O)cc1Cc1ccc(-c2ccc(F)cc2)s1` [Canagliflozin] the “rescue of cell number” value was 108%.
`C=CCN(C)CCCCCCOc1ccc(C(=O)c2ccc(Br)cc2)c(F)c1` [Ro_48_8071] was tested, and the “rescue of cell number” value was -2.22%.
With `CCCCCCCCc1ccc(CCC(N)(CO)CO)cc1` [Fingolimod] the “rescue of cell number” value was -1.64%.
With `C/C(O)=C(\C#N)C(=O)Nc1ccc(C(F)(F)F)cc1` [Teriflunomide] the “rescue of cell number” value was -6.67%.
`CC(C)c1cc(C(C)C)c(CC(=O)NS(=O)(=O)Oc2c(C(C)C)cccc2C(C)C)c(C(C)C)c1` [Avasimibe] was tested, and the “rescue of cell number” value was 7.22%.
`Cc1ccccc1C(C(=O)NC1CCCCC1)N(C(=O)Cn1ccnc1C)c1cccc(F)c1` (stereo not drawn) [AGI_5198] was tested, and the “rescue of cell number” value was 48.3%.
With `N#Cc1cn([C@@H]2O[C@H](CO)[C@@H](O)[C@H]2O)c2ncnc(N)c12` [Toyocamycin] the “rescue of cell number” value was 9.71%.
For `CCN[C@H]1C[C@H](C)S(=O)(=O)c2sc(S(N)(=O)=O)cc21` [Dorzolamide], the “rescue of cell number” value was 104%.
For `CCc1ccc(Cc2ccc3c(c2)[C@]2(OC3)O[C@H](CO)[C@@H](O)[C@H](O)[C@H]2O)cc1` [Tofogliflozin hydrate], the “rescue of cell number” value was -27.9%.
In the case of `CN1CCN(C(=O)c2ccc(-c3ccc4c(C=O)c(O)ccc4c3)s2)CC1` [MKC3946], the “rescue of cell number” value is reported as -14.6%.
`COc1ccc(N(C(=O)CCl)C(C(=O)NCCc2ccccc2)c2cccs2)cc1Cl` (stereo not drawn) [ML-162] was tested, and the “rescue of cell number” value was 15.3%.
For `CC(=O)Oc1ccccc1C(=O)O` [Aspirin], the “rescue of cell number” value was 25.2%.
`CCCCNc1cc(C(=O)O)cc(S(N)(=O)=O)c1Oc1ccccc1` [Bumetanide] was tested, and the “rescue of cell number” value was -20.9%.
`Oc1ccc(Nc2nc(-c3ccc(Cl)cc3)cs2)cc1` [SKI_II] was tested, and the “rescue of cell number” value was 0.0721%.
In the case of `CC(=O)N1CCN(c2ccc(OCC3COC(Cn4ccnc4)(c4ccc(Cl)cc4Cl)O3)cc2)CC1` (stereo not drawn) [Ketoconazole], the “rescue of cell number” value is reported as -8.71%.
For `O=c1c2ccccc2[se]n1-c1ccccc1` [Ebselen], the “rescue of cell number” value was -18.8%.
With `O=c1[nH]cc(F)c(=O)[nH]1` [5_Fluorouracil] the “rescue of cell number” value was -15.2%.
`CCN(CC)C(=S)SSC(=S)N(CC)CC` [Disulfiram] was tested, and the “rescue of cell number” value was 113%.
With `CN(N=O)C(=O)N[C@@H](C=O)[C@@H](O)[C@H](O)[C@H](O)CO` [Streptozocin] the “rescue of cell number” value was 33.4%.
`NCCc1ccc(S(=O)(=O)F)cc1` [AEBSF] was tested, and the “rescue of cell number” value was 50.3%.
With `O=C(O)CCCCC(CCSCc1ccccc1)SCc1ccccc1` (stereo not drawn) [CPI-613] the “rescue of cell number” value was 28.9%.
`Cc1nc(=O)c2cc(CN(C)c3ccc(C(=O)N[C@@H](CCC(=O)O)C(=O)O)s3)ccc2[nH]1` [Raltitrexed] was tested, and the “rescue of cell number” value was -26.7%.
With `Cc1onc(C(=O)N2CCN(C(c3ccc(Cl)cc3)c3ccc(Cl)cc3)CC2)c1[N+](=O)[O-]` [ML-210] the “rescue of cell number” value was -2.73%.
In the case of `CN1C(=O)[C@@]23C[C@]4([C@]56C[C@@]78SS[C@@](CO)(C(=O)N7[C@H]5Nc5ccccc56)N(C)C8=O)c5ccccc5N[C@@H]4N2C(=O)[C@]1(CO)SS3` [Chaetocin], the “rescue of cell number” value is reported as 11.4%.
In the case of `COc1c(O)cc2oc(-c3ccc(O)cc3)cc(=O)c2c1O` [Hispidulin], the “rescue of cell number” value is reported as 145%.
With `Cc1nccn1-c1ccc(Sc2cccc(C3(C(N)=O)CCOCC3)c2)cc1` the “rescue of cell number” value was 13%.
In the case of `O=C(O)Cc1ccccc1Nc1c(Cl)cccc1Cl` [Diclofenac], the “rescue of cell number” value is reported as -20%.
With `CC(C)(C(=O)c1cccnc1)c1cccnc1` [Metyrapone] the “rescue of cell number” value was 87.6%.
For `O=C(/C=C/c1cccnc1)NCCCCC1CCN(C(=O)c2ccccc2)CC1` [FK_866], the “rescue of cell number” value was 26.9%.
In the case of `Cc1n[nH]c(C)c1Cc1sc2c(c1C(=O)N1C[C@H](O)CO1)c(=O)n(C)c(=O)n2CC(C)C`, the “rescue of cell number” value is reported as 78.9%.
With `Nc1nc2c(c(=O)[nH]1)C[C@@H](CCc1ccc(C(=O)N[C@@H](CCC(=O)O)C(=O)O)cc1)CN2` [Lometrexol] the “rescue of cell number” value was -30.2%.
For `CCOC(=O)[C@@H](N)CCC(=O)N[C@@H](CSCc1ccccc1)C(=O)N[C@@H](C(=O)OCC)c1ccccc1` [Ezatiostat], the “rescue of cell number” value was -9.45%.
With `Cc1[nH]nc(C(F)(F)F)c1Cc1sc2c(c1C(=O)N1C[C@](C)(O)CO1)c(=O)n(C)c(=O)n2C(C)C` [AZD3965] the “rescue of cell number” value was 0.308%.
With `C[C@@H]1CC[C@H]2[C@@H](C)C(=O)O[C@@H]3O[C@@]4(C)CC[C@@H]1[C@]32OO4` [Artemisinin] the “rescue of cell number” value was 15.9%.
In the case of `CNC(=O)c1ccc2cc([C@@]3(O)CCn4cncc43)ccc2c1` [TAK_700], the “rescue of cell number” value is reported as -25.3%.
`O=C(c1cc(Cc2n[nH]c(=O)c3ccccc23)ccc1F)N1CCN(C(=O)C2CC2)CC1` [Olaparib] was tested, and the “rescue of cell number” value was -15.1%.
For `O=C(O)C(=O)CBr` [Bromopyruvic_acid], the “rescue of cell number” value was 134%.
For `OC[C@H]1O[C@@H](c2ccc(Cl)c(Cc3ccc(O[C@H]4CCOC4)cc3)c2)[C@H](O)[C@@H](O)[C@@H]1O` [Empagliflozin], the “rescue of cell number” value was 86.7%.
`NC(=O)c1ccc(N)nc1` [6_Aminonicotinamide] was tested, and the “rescue of cell number” value was 32.1%.
`O=C(NNc1ccccc1)c1ccncc1` [PluriSln_1] was tested, and the “rescue of cell number” value was 41.4%.
In the case of `Cc1c(O)c(=O)ccn1C` [Deferiprone], the “rescue of cell number” value is reported as 25.4%.
With `COC(=O)/C=C/C(=O)OC` [Dimethyl fumarate] the “rescue of cell number” value was 67.2%.
In the case of `Cc1cnc(Nc2ccc(OCCN3CCCC3)cc2)nc1Nc1cccc(S(=O)(=O)NC(C)(C)C)c1` [Fedratinib], the “rescue of cell number” value is reported as 40.7%.
With `CCCCC[C@H](O)CC(=O)CCc1ccc(O)c(OC)c1` [[6]-Gingerol] the “rescue of cell number” value was -29.7%.
With `CN(CCOc1ccc(CC2SC(=O)NC2=O)cc1)c1ccccn1` (stereo not drawn) [Rosiglitazone] the “rescue of cell number” value was 4.26%.
